Measurements as given in patent US7981871B2, “Modified macromolescules and associated methods of synthesis and use” (University of Utah Research Foundation, priority 2003, dated 2011).

Tests used:
Assay in all cases: Sensitivity to PI3K inhibitor and Taxol in 3-D culture (Carbylan-GSX hydrogels)
Type in all cases: cell-based, Human
SK-OV-3 = system: SK-OV-3
Procedure: (§1) Human breast cancer cell lines (MDA-MB-231 and MDA-MB-468), colon adenocarcinoma cell lines (Caco2, HCT116, and HCA7), and ovarian cancer cell (SK-OV-3) were obtained from American Type Culture Collections (ATCC) and maintained in RPMI 1640 medium (GIBCO) supplemented with 10 mM HEPES, 10% fetal bovine serum (Hyclone), 0.4 mM sodium pyruvate, and […], 100 U/ml penicillin, and 100 ug/ml streptomycin.
(§2) When reaching 80-90% confluence, the above cell lines were trypsinized with 0.25% trypsin containing 1 mM EDTA and suspended in 1.25% (w/v) Carbylan™-S and 3% (w/v) gelatin-DTPH in a 50:50 (v/v) ratio in serum-free RPMI medium (pH 7.4), and then 4% (w/v) solution of PEGDA in DPBS buffer was added to the Carbylan™-S/gelatin-DTPH solution at a ratio of 4:1 (Carbylan™-S :PEGDA, v:v) and mixed by vortexing for 30 second. The final concentration of cells in Carbylan™-GSX solution was 2.0×10^6/ml. Aliquots ([…]) of each reaction mixture loaded with cells were transferred by pipette into 24-well cell culture inserts (Coming incorporated, Coming, N.Y.) with 6.5 mm in diameter and […]. The cell loaded inserts were incubated in incubator (37° C. and 5% CO2) for two hours and then 2 ml of RPMI 1640 medium containing 10% FBS was added into each into each insert. The media were changed every two days. Two weeks after the initial culture, the media were removed from the inserts and changed with 10 mM of LY-294002 (Sigma) and 1 mg/ml of paclitaxel (Sigma) in RPMI 1640 medium containing 0.5% FBS. There were total eight inserts for each reagent each cell line. The media were also changed every two days. Two weeks after the media were changed to LY-294002 and paclitaxel containing media, the media were removed from the inserts and changed with 1.5 ml RPMI 1640 media containing 5% FBS and 15% (v/v) CellTiter 96 aqueous one solution cell proliferation assay (Promega, Madison, Wis.) and incubated in incubator (37° C. and 5% CO2) for three hours and then the reaction solution was transferred into 96-well plate ([…]) and the absorbance was read at 550 nm with an OPTI Max microplate reader (Molecular Devices). The inserts were rinsed twice with DPBS buffer and stained with FDA and PI at RT for 5 min and observed using a confocal laser scanning microscope (LSM 510, Carl Zeiss Microimaging, Inc., Thornwood, N.Y.).

MDA-MB-231 = MDA-MB-231 in Carbylan-GSX; 10 mM LY-294002 or 1 mg/ml paclitaxel; two weeks
Procedure: as §1, §2

MDA-MB-468 = MDA-MB-468 in Carbylan-GSX; 10 mM LY-294002 or 1 mg/ml paclitaxel; two weeks
Procedure: as §1, §2

HCT116 = settings: 10 mM LY-294002 or 1 mg/ml paclitaxel, two weeks
Procedure: as §1, §2

HCA7 = settings: 10 mM LY-294002 or 1 mg/ml paclitaxel, two weeks
Procedure: as §1, §2

CaCo-2 = system: CaCo-2
Procedure: as §1, §2

CC(=O)O[C@H]1C(=O)[C@@]2(C)[C@H]([C@H](OC(=O)c3ccccc3)[C@]3(O)C[C@H](OC(=O)[C@H](O)[C@@H](NC(=O)c4ccccc4)c4ccccc4)C(C)=C1C3(C)C)[C@]1(OC(C)=O)CO[C@@H]1C[C@@H]2O [paclitaxel]
3-D morphology (FDA/PI staining) (SK-OV-3; SK-OV-3, compared to cells cultured in normal medium): no obvious difference
proliferation (CellTiter 96, absorbance at 550 nm) (SK-OV-3; SK-OV-3 in Carbylan-GSX, 10 mM LY-294002 or 1 mg/ml paclitaxel, two weeks): Neither LY294002 and paclitaxel showed any inhibition effects
proliferation (CellTiter 96, absorbance at 550 nm) (MDA-MB-231): Neither LY294002 and paclitaxel showed any inhibition effects
proliferation (CellTiter 96, absorbance at 550 nm) (MDA-MB-468): inhibited
proliferation (CellTiter 96, absorbance at 550 nm) (HCT116): inhibited
proliferation (CellTiter 96, absorbance at 550 nm) (HCA7): inhibited
proliferation (CellTiter 96, absorbance at 550 nm) (CaCo-2; CaCo-2 in Carbylan-GSX, 10 mM LY-294002 or 1 mg/ml paclitaxel, two weeks): inhibited
cell density in sECM hydrogels (FDA/PI staining) (CaCo-2; Caco-2, compared to cells cultured in normal medium): decreased
